In ChEMBL document CHEMBL5528082 (J Med Chem, 2024):
Values after ≈ are worked out from the molar mass of the structure shown.

How the values were obtained:
[1] = Cytotoxicity against HEK293 cells assessed as inhibition rate of cell growth at 100 uM incubated for 24 hrs by CCK8 assay relative to control; assay type: toxicity, cell-based; conditions: human
[2] = biological target: Dihydrofolate reductase (Staphylococcus aureus, UniProt P0A017); assay: Inhibition of Staphylococcus aureus DHFR expressed in Escherichia coli BL21 (DE3) using DHF as substrate preincubated for 10 mins followed by substrate addition measured for 10 mins in presence of NADPH by spectrophotometry
Dihydrofolate reductase, sequence (P0A017 whole entry): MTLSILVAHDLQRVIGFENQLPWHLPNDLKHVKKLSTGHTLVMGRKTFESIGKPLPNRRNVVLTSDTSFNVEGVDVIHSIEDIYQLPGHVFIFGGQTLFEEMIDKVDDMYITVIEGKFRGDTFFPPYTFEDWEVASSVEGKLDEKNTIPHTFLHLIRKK

[3] = tested on: Staphylococcus aureus; assay: Antibacterial activity against TMP-resistant Staphylococcus aureus BHKS 723 incubated for 24 hrs by CLSI based broth microdilution assay; assay type: functional
[4] = tested on: Staphylococcus aureus; assay: Antibacterial activity against TMP-resistant Staphylococcus aureus BHKS 721 incubated for 24 hrs by CLSI based broth microdilution assay; assay type: functional
[5] = Cytotoxicity against human NCM460 cells assessed as inhibition rate of cell growth at 100 uM incubated for 24 hrs by CCK8 assay relative to control; assay type: toxicity, cell-based
[6] = tested on: Staphylococcus aureus; assay: Antibacterial activity against TMP-resistant Staphylococcus aureus BHKS 227 incubated for 24 hrs by CLSI based broth microdilution assay; assay type: functional
[7] = tested on: Staphylococcus aureus; assay: Antibacterial activity against Staphylococcus aureus USA 300 incubated for 24 hrs by CLSI based broth microdilution assay; assay type: functional
[8] = tested on: Staphylococcus aureus; assay: Antibacterial activity against Staphylococcus aureus ATCC 25923 incubated for 24 hrs by CLSI based broth microdilution assay; assay type: functional
[9] = tested on: Dihydrofolate reductase (Staphylococcus aureus); conditions: dose 100.0 nM

SMILES | inhibition at 24 h, 100 µM [1] [%] | IC50 [2] [nM] | MIC [3] [µg/mL] | MIC [4] [µg/mL] | inhibition at 24 h, 100 µM [5] [%] | MIC [6] [µg/mL] | MIC [7] [µg/mL] | MIC [8] [µg/mL] | inhibition [9] [%]
COc1cc(C(C)C)c(Oc2cnc(N)nc2N)cc1-c1ccc(C(=O)O)cc1 | 29.9 | 4.44 | 2 (≈ 5.07 µM) | 2 (≈ 5.07 µM) | 6.53 | < 0.25 | 0.063 (≈ 0.16 µM) | 0.063 (≈ 0.16 µM) | 45.1
COc1cc(C(C)C)c(Oc2cnc(N)nc2N)cc1-c1ccc(Cl)cc1 | 16.4 | 66.6 | 16 (≈ 41.6 µM) | 16 (≈ 41.6 µM) | 69.1 | 1 (≈ 2.6 µM) | 0.25 (≈ 0.65 µM) | 0.25 (≈ 0.65 µM) | 94.3
COc1cc(C(C)C)c(Oc2cnc(N)nc2N)cc1CC(C)C | 57.8 | 24.2 | 16 (≈ 48.4 µM) | 16 (≈ 48.4 µM) | 67.4 | 4 (≈ 12.1 µM) | 0.5 (≈ 1.51 µM) | 0.5 (≈ 1.51 µM) | > 100
COc1cc(C(C)C)c(Oc2cnc(N)nc2N)cc1-c1cc(F)cc(F)c1 | 45.2 | 41.8 | 32 (≈ 82.8 µM) | 32 (≈ 82.8 µM) | 52.1 | 4 (≈ 10.4 µM) | 0.5 (≈ 1.29 µM) | 1 (≈ 2.59 µM) | > 100
COc1cc(C(C)C)c(Oc2cnc(N)nc2N)cc1-c1cccc(C(F)(F)F)c1 | 51.5 | 239 | 16 (≈ 38.2 µM) | 16 (≈ 38.2 µM) | 74.6 | 4 (≈ 9.56 µM) | 1 (≈ 2.39 µM) | 1 (≈ 2.39 µM) | 82.9
COc1cc(C(C)C)c(Oc2cnc(N)nc2N)cc1-c1ccc(F)cc1 | 46.9 | 69.5 | 16 (≈ 43.4 µM) | 16 (≈ 43.4 µM) | 60.3 | 1 (≈ 2.71 µM) | 0.25 (≈ 0.679 µM) | 0.25 (≈ 0.679 µM) | 27.2
CC(C)c1cc(OCC2CCCC2)c(I)cc1Oc1cnc(N)nc1N | 64 | 10.2 | 4 (≈ 8.54 µM) | 8 (≈ 17.1 µM) | 35.2 | 2 (≈ 4.27 µM) | 0.125 (≈ 0.267 µM) | 0.125 (≈ 0.267 µM) | 76.4
COc1cc(C(C)C)c(Oc2cnc(N)nc2N)cc1C1CC1 | 0.06 | 27.8 | 32 (≈ 102 µM) | 16 (≈ 50.9 µM) | 4.06 | 4 (≈ 12.7 µM) | 0.5 (≈ 1.59 µM) | 1 (≈ 3.18 µM) | 35.3
COc1cc(C(C)C)c(Oc2cnc(N)nc2N)cc1-c1ccc(C(C)(C)C)cc1 | 20.7 | 37.9 | 4 (≈ 9.84 µM) | 4 (≈ 9.84 µM) | 65.6 | 4 (≈ 9.84 µM) | 0.5 (≈ 1.23 µM) | 0.5 (≈ 1.23 µM) | 54.3
COc1cc(C(C)C)c(Oc2cnc(N)nc2N)cc1-c1ccc(C)cc1 | 2.04 | 38.7 | 16 (≈ 43.9 µM) | 16 (≈ 43.9 µM) | 55.5 | 2 (≈ 5.49 µM) | 0.5 (≈ 1.37 µM) | 0.5 (≈ 1.37 µM) | 9.88
COc1cc(C(C)C)c(Oc2cnc(N)nc2N)cc1-c1ccc(Cl)c(C(F)(F)F)c1 | 41 | 142 | 4 (≈ 8.83 µM) | 4 (≈ 8.83 µM) | 37.8 | 2 (≈ 4.42 µM) | 0.5 (≈ 1.1 µM) | 0.5 (≈ 1.1 µM) | 67.4
COc1cc(C(C)C)c(Oc2cnc(N)nc2N)cc1-c1cc(Cl)cc(Cl)c1 | 39.7 | 15.4 | 4 (≈ 9.54 µM) | 4 (≈ 9.54 µM) | 66.2 | 1 (≈ 2.38 µM) | 0.125 (≈ 0.298 µM) | 0.125 (≈ 0.298 µM) | 78.6
COc1cc(C(C)C)c(Oc2cnc(N)nc2N)cc1-c1ccc2ccccc2c1 | 13.5 | 148 | > 32 | > 32 | 67.6 | 1 (≈ 2.5 µM) | 0.25 (≈ 0.624 µM) | 0.5 (≈ 1.25 µM) | 80.8
CCCOc1cc(C(C)C)c(Oc2cnc(N)nc2N)cc1I | 47.4 | 45 | > 32 | > 32 | 66.7 | 0.5 (≈ 1.17 µM) | 0.016 (≈ 0.0374 µM) | 0.016 (≈ 0.0374 µM) | 43.8
COc1cc(C(C)C)c(Oc2cnc(N)nc2N)cc1-c1ccccc1Cl | 37.8 |  | 32 (≈ 83.1 µM) | 32 (≈ 83.1 µM) | 29 | 16 (≈ 41.6 µM) | 4 (≈ 10.4 µM) | 4 (≈ 10.4 µM) | 74.3
CCOc1cc(C(C)C)c(Oc2cnc(N)nc2N)cc1I | 57.9 |  | 4 (≈ 9.66 µM) | 4 (≈ 9.66 µM) | 13.9 | 0.25 (≈ 0.604 µM) | 0.016 (≈ 0.0386 µM) | 0.016 (≈ 0.0386 µM) | 42.6
CCc1cc(Oc2cnc(N)nc2N)c(C(C)C)cc1OC | 38.8 | 24.7 | 16 (≈ 52.9 µM) | 16 (≈ 52.9 µM) | 8.5 | 2 (≈ 6.61 µM) | 0.125 (≈ 0.413 µM) | 0.25 (≈ 0.827 µM) | 
CC(C)c1ccc(-c2cc(Oc3cnc(N)nc3N)c(C(C)C)cc2OCC2CC2)cc1 | 19.3 |  | 4 (≈ 9.25 µM) | 2 (≈ 4.62 µM) | 30.2 | 4 (≈ 9.25 µM) | 1 (≈ 2.31 µM) | 1 (≈ 2.31 µM) | 75.4
COc1ccc(-c2cc(Oc3cnc(N)nc3N)c(C(C)C)cc2OC)cc1 | 19.9 |  | 16 (≈ 42.1 µM) | 16 (≈ 42.1 µM) | 69.5 | 1 (≈ 2.63 µM) | 0.125 (≈ 0.329 µM) | 0.25 (≈ 0.657 µM) | 19.9
COc1cc(C(C)C)c(Oc2cnc(N)nc2N)cc1C | 15.6 |  | 32 (≈ 111 µM) | 16 (≈ 55.5 µM) | 57.3 | 4 (≈ 13.9 µM) | 1 (≈ 3.47 µM) | 1 (≈ 3.47 µM) | 65.9
COc1cc(C(C)C)c(Oc2cnc(N)nc2N)cc1-c1ccc(Cl)c(Cl)c1 | 41 |  | 8 (≈ 19.1 µM) | 8 (≈ 19.1 µM) | 34.1 | 2 (≈ 4.77 µM) | 3 (≈ 7.15 µM) | 0.5 (≈ 1.19 µM) | 60.8
COc1cc(C(C)C)c(Oc2cnc(N)nc2N)cc1-c1ccc2c(c1)OCCO2 | 19.6 |  | 16 (≈ 39.2 µM) | 16 (≈ 39.2 µM) | 64.7 | 4 (≈ 9.79 µM) | 0.25 (≈ 0.612 µM) | 0.5 (≈ 1.22 µM) | 27.2
CC(C)c1cc(OCCc2ccccc2)c(I)cc1Oc1cnc(N)nc1N | 62 |  | 4 (≈ 8.16 µM) | 4 (≈ 8.16 µM) | 33.7 | 2 (≈ 4.08 µM) | 0.125 (≈ 0.255 µM) | 0.125 (≈ 0.255 µM) | 76.4
